{"source": "patent US10544153B2", "about": "“Benzoic acid, benzoic acid derivatives and heteroaryl carboxylic acid conjugates of oxycodone, prodrugs, methods of making and use thereof” (KemPharm, Inc., priority 2014, dated 2020)", "key": {"[1]": {"experiment": "Oral PK in rats: plasma concentrations of oxymorphone by LC-MS/MS", "conditions": "oxymorphone released"}, "[2]": {"experiment": "Intranasal PK in rats (Table 4)", "conditions": "title: oxymorphone released (released oxycodone)"}, "[3]": {"experiment": "Intranasal PK in rats: plasma concentrations of released oxymorphone by LC-MS/MS"}, "[4]": {"experiment": "Oral PK in rats: plasma concentrations of released oxycodone by LC-MS/MS"}, "[5]": {"experiment": "Tamper resistance: percent of OC released under tampering conditions, LC-MS/MS", "assay_type": "physicochemical", "conditions": "RT", "protocol": "Effective abuse deterrent forms of drugs of abuse can also be resistant to chemical tampering. The prodrugs in the present technology also impart this characteristic. Several common tampering scenarios were employed and percent of OC released were determined by liquid chromatography with tandem mass spectrometry (LC-MS/MS). The results as shown in Table 7 indicated a very high degree of tamper resistance in the example OC prodrugs, releasing little to no OC."}, "[6]": {"conditions": "conjugate equivalent to 2 mg/kg freebase oxycodone"}, "[7]": {"conditions": "equivalent to 2 mg/kg freebase oxycodone"}, "[8]": {"conditions": "Table 6, equivalent to 2 mg/kg freebase oxycodone"}, "[9]": {"conditions": "Table 6, relative to oxycodone (OC)"}}}
{"smiles": "COc1ccc2c3c1O[C@H]1C(OC(=O)c4ccc(O)cc4)=CC[C@@]4(O)[C@@H](C2)N(C)CC[C@]314", "note": "[Conjugate 4-OH-Bz-OC]", "values": [{"measurement": "AUC", "setting": "[1]; [6]", "value": 3.3, "unit": "ng·h/mL"}, {"measurement": "Cmax", "setting": "[1]; [6]", "value": 2.1, "unit": "ng/mL"}, {"measurement": "tmax", "setting": "[1]; [6]", "value": 15, "unit": "min"}, {"measurement": "%-AUC of OC", "setting": "[1]; relative to oxycodone (OC)", "value": 55, "unit": "%"}, {"measurement": "%-Cmax of OC", "setting": "[1]; relative to oxycodone (OC)", "value": 49, "unit": "%"}, {"measurement": "%-tmax of OC", "setting": "[1]; relative to oxycodone (OC)", "value": 100, "unit": "%"}, {"measurement": "Cmax", "setting": "[2]; [7]", "value": 759.2, "unit": "ng/mL"}, {"measurement": "tmax", "setting": "[2]; [7]", "value": 4.98, "unit": "min"}, {"measurement": "%-Cmax of OC", "setting": "[2]; relative to oxycodone (OC)", "value": 41, "unit": "%"}, {"measurement": "%-tmax of OC", "setting": "[2]; relative to oxycodone (OC)", "value": 100, "unit": "%"}, {"measurement": "AUC", "setting": "[3]; [8]", "value": 11.8, "unit": "ng·h/mL"}, {"measurement": "Cmax", "setting": "[3]; [8]", "value": 19.0, "unit": "ng/mL"}, {"measurement": "tmax", "setting": "[3]; [8]", "value": 27, "unit": "min"}, {"measurement": "%-AUC of OC", "setting": "[3]; [9]", "value": 58, "unit": "%"}, {"measurement": "%-Cmax of OC", "setting": "[3]; [9]", "value": 61, "unit": "%"}, {"measurement": "%-tmax of OC", "setting": "[3]; [9]", "value": 90, "unit": "%"}, {"measurement": "AUC", "setting": "[4]; [6]", "value": 53.5, "unit": "ng·h/mL"}, {"measurement": "Cmax", "setting": "[4]; [6]", "value": 35.4, "unit": "ng/mL"}, {"measurement": "tmax", "setting": "[4]; [6]", "value": 45, "unit": "min"}, {"measurement": "%-AUC of OC", "setting": "[4]; relative to oxycodone (OC)", "value": 58, "unit": "%"}, {"measurement": "%-Cmax of OC", "setting": "[4]; relative to oxycodone (OC)", "value": 69, "unit": "%"}, {"measurement": "%-tmax of OC", "setting": "[4]; relative to oxycodone (OC)", "value": 188, "unit": "%"}, {"measurement": "percent of OC released", "setting": "[5]; 1N HCl, 1 hour", "value": 0, "unit": "%"}, {"measurement": "percent of OC released", "setting": "[5]; 5% Bicarbonate, 1 hour", "value": 0, "unit": "%"}, {"measurement": "percent of OC released", "setting": "[5]; Water, 1 hour", "value": 0, "unit": "%"}, {"measurement": "percent of OC released", "setting": "[5]; Water, 24 hours", "value": 0, "unit": "%"}]}
